The values below come from article PMC11062922 (Nature Chemical Biology, 2023).

The subject of test [1] is AGK. The test is described as follows: Kinobeads competition binding: AGK. Set-up: species or system human. The note with it: target AGK.
Test [2] addresses T1, CSNK1D (Homo sapiens, UniProt P48730).
T1 construct: endogenous in cells
Description: Kinobeads competition binding: CSNK1D. The note with it: target CSNK1D.

In test [3] the test system is PIK3CB. Description: Kinobeads competition binding: PIK3CB. The note with it: target PIK3CB. The arrangement: species or system human.
In test [4] the test system is IGF1R. Description: Kinobeads competition binding: IGF1R.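 Also: selectivity score: engagement of this protein divided by summed engagement of all targets.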 The note with it: target IGF1R. Set-up: species or system human.
In test [5] the target is T2, ACVR1 (Homo sapiens, UniProt Q04771).
T2 construct: to maximize the representation of endogenous proteins; endogenous in cells
T2 sequence (Q04771 21-509): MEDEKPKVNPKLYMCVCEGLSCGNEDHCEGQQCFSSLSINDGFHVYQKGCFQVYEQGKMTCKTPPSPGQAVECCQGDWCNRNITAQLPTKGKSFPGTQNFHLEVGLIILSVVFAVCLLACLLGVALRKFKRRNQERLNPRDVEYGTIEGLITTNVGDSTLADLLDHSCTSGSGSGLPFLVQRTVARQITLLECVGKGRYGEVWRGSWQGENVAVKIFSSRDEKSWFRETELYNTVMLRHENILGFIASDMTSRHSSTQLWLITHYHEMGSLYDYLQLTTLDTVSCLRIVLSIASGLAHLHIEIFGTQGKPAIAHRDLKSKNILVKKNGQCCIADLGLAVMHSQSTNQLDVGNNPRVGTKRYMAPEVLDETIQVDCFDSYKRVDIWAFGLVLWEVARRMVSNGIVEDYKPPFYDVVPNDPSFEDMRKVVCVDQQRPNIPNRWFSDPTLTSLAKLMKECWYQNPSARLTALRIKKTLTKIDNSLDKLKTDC
The test is described as follows: Kinobeads competition binding: ACVR1.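 Also: target engagement share of this target among all targets at its Kdapp concentration.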 The note with it: target ACVR1. The text has this: Supplement 41589_2023_1459_MOESM4_ESM.xlsx, sheet "CATDS matrix" | column: ACVR1

In test [6] the test system is ACVR2B. Description: Kinobeads competition binding: ACVR2B. The arrangement: species or system human. The note with it: target ACVR2B.
Test [7] has as its target T3, CSNK1E (Homo sapiens, UniProt P49674).
T3 construct: endogenous in cells
The test is described as follows: Kinobeads competition binding: CSNK1E. The note with it: target CSNK1E.

In test [8] the target is T4, PIP4K2C (Homo sapiens, UniProt Q8TBX8).
T4 construct: a mixture of lysates from five cancer cell lines; endogenous in cells
T4 sequence (Q8TBX8 1-421): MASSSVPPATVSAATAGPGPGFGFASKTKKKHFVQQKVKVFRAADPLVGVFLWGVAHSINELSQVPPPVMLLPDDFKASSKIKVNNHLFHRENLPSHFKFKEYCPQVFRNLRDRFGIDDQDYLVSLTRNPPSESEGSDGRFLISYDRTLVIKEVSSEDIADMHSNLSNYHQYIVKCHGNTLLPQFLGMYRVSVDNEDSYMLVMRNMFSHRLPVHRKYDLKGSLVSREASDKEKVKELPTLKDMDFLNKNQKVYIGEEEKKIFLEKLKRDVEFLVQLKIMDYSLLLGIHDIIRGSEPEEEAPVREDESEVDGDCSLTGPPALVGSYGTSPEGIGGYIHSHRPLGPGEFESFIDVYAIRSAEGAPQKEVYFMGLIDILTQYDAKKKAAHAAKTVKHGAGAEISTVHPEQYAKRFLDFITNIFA
Description: Kinobeads competition binding: PIP4K2C. The note with it: target PIP4K2C. The text has this: Supplement 41589_2023_1459_MOESM4_ESM.xlsx, sheet "CATDS matrix" | column: PIP4K2C

Test [9] deals with JAK1. Description: Kinobeads competition binding: JAK1.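 Also: target engagement share of this target among all targets at its Kdapp concentration.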 The arrangement: species or system human. The note with it: target JAK1.
Test [10] deals with MST1R. The test is described as follows: Kinobeads competition binding: MST1R.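 Also: selectivity score: engagement of this protein divided by summed engagement of all targets.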 Set-up: species or system human. The note with it: target MST1R.
The test system of test [11] is DDR1. Description: Kinobeads competition binding: DDR1. The note with it: target DDR1. The arrangement: species or system human.
Test [12] concerns the target T5, EPHB4 (Homo sapiens, UniProt P54760).
T5 construct: endogenous in cells
T5 sequence (P54760 16-987): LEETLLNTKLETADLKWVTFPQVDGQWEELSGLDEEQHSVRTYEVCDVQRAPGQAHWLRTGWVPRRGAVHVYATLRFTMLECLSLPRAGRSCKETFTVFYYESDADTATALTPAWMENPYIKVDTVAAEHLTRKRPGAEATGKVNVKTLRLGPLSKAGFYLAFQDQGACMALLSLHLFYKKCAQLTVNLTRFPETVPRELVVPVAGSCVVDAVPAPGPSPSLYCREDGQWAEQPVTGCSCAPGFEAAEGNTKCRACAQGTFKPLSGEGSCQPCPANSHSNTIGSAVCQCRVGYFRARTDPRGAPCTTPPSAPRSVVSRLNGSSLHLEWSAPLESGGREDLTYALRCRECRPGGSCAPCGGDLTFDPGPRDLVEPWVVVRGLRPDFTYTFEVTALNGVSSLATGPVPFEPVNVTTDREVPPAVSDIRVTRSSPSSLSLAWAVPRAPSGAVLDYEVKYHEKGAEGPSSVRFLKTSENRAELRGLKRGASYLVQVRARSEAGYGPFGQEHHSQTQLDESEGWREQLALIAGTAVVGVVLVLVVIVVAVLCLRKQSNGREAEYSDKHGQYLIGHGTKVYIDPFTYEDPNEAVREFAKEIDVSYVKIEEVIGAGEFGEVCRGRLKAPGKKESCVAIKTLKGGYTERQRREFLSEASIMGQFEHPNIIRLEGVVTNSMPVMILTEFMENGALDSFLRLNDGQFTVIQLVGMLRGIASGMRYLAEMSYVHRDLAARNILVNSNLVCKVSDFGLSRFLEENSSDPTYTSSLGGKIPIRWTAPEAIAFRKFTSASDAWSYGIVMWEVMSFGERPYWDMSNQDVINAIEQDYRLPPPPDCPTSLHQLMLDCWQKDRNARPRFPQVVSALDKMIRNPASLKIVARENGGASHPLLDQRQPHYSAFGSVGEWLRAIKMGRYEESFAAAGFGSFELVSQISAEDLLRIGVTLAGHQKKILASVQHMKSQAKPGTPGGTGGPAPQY
The test is described as follows: Kinobeads competition binding: EPHB4. The note with it: target EPHB4.

The subject of test [13] is MTOR. Description: Kinobeads competition binding: MTOR. The note with it: target MTOR. Set-up: species or system human.
The subject of test [14] is INSR. Description: Kinobeads competition binding: INSR.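 Also: share of total target engagement due to this protein at one drug concentration.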 Set-up: species or system human. The note with it: target INSR.

T3 sequence (P49674 whole entry): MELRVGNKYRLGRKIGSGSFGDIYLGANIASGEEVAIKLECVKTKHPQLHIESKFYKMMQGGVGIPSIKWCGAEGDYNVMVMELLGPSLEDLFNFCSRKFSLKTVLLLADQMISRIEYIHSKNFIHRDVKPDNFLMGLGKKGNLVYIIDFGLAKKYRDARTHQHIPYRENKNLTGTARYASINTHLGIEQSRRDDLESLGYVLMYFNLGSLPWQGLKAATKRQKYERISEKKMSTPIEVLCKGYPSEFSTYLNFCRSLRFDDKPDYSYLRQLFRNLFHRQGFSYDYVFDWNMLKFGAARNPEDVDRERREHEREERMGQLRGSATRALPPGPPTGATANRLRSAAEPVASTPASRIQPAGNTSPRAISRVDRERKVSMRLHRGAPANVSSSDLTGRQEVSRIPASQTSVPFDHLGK
T1 sequence (P48730 whole entry): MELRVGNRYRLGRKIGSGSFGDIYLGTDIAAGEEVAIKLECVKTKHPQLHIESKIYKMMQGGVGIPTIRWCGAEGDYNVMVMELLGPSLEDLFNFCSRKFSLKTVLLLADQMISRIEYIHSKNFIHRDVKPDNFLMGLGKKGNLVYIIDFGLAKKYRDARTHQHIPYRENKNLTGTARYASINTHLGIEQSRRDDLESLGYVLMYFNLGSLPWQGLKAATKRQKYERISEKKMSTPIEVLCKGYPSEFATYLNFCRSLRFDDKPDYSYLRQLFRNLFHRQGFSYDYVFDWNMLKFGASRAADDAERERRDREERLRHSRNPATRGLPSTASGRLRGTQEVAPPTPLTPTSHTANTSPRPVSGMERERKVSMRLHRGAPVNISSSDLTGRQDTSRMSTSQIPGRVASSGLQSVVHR

With `Nc1ncnc2[nH]c(-c3ccccc3)nc12` [AH5015_KCGS], the CATDS in test [1], in test [2], in [3], in test [4], in [5] and in test [6] was 0 throughout. Also, the CATDS in [7] amounted to 0; in [8], 0; in test [9], 0; in test [10], 0; in test [11], 0; in test [12], 0.03489. The CATDS in test [13] and in test [14] was 0 throughout.

As to `CCc1cc2c(cc1N1CCC(N3CCOCC3)CC1)C(C)(C)c1[nH]c3cc(C#N)ccc3c1C2=O` [Alectinib], the CATDS in test [1], in [2], in [3], in test [4], in test [5] and in test [6] was 0 each time. The CATDS in test [7], in [8], in test [9], in [10], in test [11] and in [12] was 0 each time. The CATDS in test [13] and in [14] was 0 in each case.

For `N#CC1(c2ccc(NC(=O)c3cccnc3NCc3ccncc3)cc2)CCCC1` [Apatinib], the CATDS in [1], in [2], in test [3], in test [4], in test [5] and in [6] was 0 in each case. Moreover, the CATDS in [7], in [8], in test [9], in test [10], in test [11] and in [12] was 0 each time. Also, the CATDS in test [13] and in [14] was 0 each time.

As to `CCN1CCN(Cc2ccc(Nc3ncc(F)c(-c4cc(F)c5nc(C)n(C(C)C)c5c4)n3)nc2)CC1` [Abemaciclib], the CATDS in test [1], in test [2], in test [3], in test [4], in test [5] and in test [6] was 0 in each case. For the same compound, the CATDS in test [8], in [9], in [10], in [11], in [12] and in test [13] was 0 each time. In [14], the CATDS was determined as 0.

Take `CN(C)C/C=C/C(=O)Nc1cc2c(Nc3ccc(F)c(Cl)c3)ncnc2cc1O[C@H]1CCOC1` [Afatinib]: the CATDS in test [1], in test [2], in test [5], in test [7] and in test [8] was 0 in each case.
